Reference: patent US10087469B2, “Method of producing sugar solution, sugar solution, and method of producing ethanol” (Toray Industries, Inc., priority 2012, dated 2018)

System: Pichia stipitis NBRC1687 strain
Test: Growth test of Pichia stipitis using model sugar solution (YPDX medium with additive)
Assay type: cell-based
Parameters: Xylose concentration in the medium / Glucose concentration in the medium: unit not given here
Details: for growth inhibitory effect compared with coumaric acid: particularly in consumption rate of glucose
Protocol: In main culture of “A. Growth Test of Pichia Stipitis using Model Sugar solution” described below, any one of coumaramide, coumaric acid, and ferulamide was added in a concentration of 2 ppm to 200 ppm as an additive in a medium, and the medium was subjected to a growth test. As a positive control, a YPDX medium free of an additive was subjected to the same test.
A. Growth Test of Pichia Stipitis Using Model Sugar Solution
A Pichia stipitis NBRC1687 strain was statically cultured at 25° C. in a YPDX agar medium produced by adding 2% agar to a YPDX medium shown in Table 3 below (prepreculture). One of colonies formed on the agar medium was inoculated into 10 mL of the YPDX medium with a platinum loop, and cultured at 25° C. and 120 spm in a test tube with a volume of 20 mL for 48 hours under shaking (preculture). One mL of medium after the preculture was added to 9 mL of YPDX medium, and culture was further continued at 25° C. and 60 spm in a test tube with a volume of 20 mL (main culture). 0, 24, and 48 hours after initiation of the culture, sampling was performed, the monosaccharide concentration and the absorbance (OD660) were measured. Thus, growth of fungus bodies was observed.

[1] = additive 2 ppm, 0 h of main culture
[2] = additive 2 ppm, 24 h of main culture
[3] = additive 2 ppm, 48 h of main culture
[4] = additive 20 ppm, 0 h of main culture
[5] = additive 20 ppm, 24 h of main culture
[6] = additive 20 ppm, 48 h of main culture
[7] = additive 200 ppm, 0 h of main culture
[8] = additive 200 ppm, 24 h of main culture
[9] = additive 200 ppm, 48 h of main culture

SMILES: COc1cc(/C=C/C(N)=O)ccc1O [Ferulamide, ferulamide]
- fermentation inhibitor in the culture of Pichia stipitis: fermentation inhibitors
- Glucose concentration in the medium [1]: 10
- Xylose concentration in the medium [1]: 10
- Glucose concentration in the medium [2]: 2.3
- Xylose concentration in the medium [2]: 2.3
- Glucose concentration in the medium [3]: 0
- Xylose concentration in the medium [3]: 0
- Glucose concentration in the medium [4]: 10
- Xylose concentration in the medium [4]: 10
- Glucose concentration in the medium [5]: 6.6
- Xylose concentration in the medium [5]: 9.3
- Glucose concentration in the medium [6]: 0
- Xylose concentration in the medium [6]: 0
- Glucose concentration in the medium [7]: 10
- Xylose concentration in the medium [7]: 10
- Glucose concentration in the medium [8]: 6.7
- Xylose concentration in the medium [8]: 9.7
- Glucose concentration in the medium [9]: 0
- Xylose concentration in the medium [9]: 5.2
- growth inhibitory effect compared with coumaric acid: superior to coumaric acid in growth inhibitory

SMILES: O=C(O)/C=C/c1ccc(O)cc1 [Coumaric Acid, coumaric acid]
- Glucose concentration in the medium [1]: 10
- Xylose concentration in the medium [1]: 10
- Glucose concentration in the medium [2]: 2.6
- Xylose concentration in the medium [2]: 2.6
- Glucose concentration in the medium [3]: 0
- Xylose concentration in the medium [3]: 0
- Glucose concentration in the medium [4]: 10
- Xylose concentration in the medium [4]: 10
- Glucose concentration in the medium [5]: 2.6
- Xylose concentration in the medium [5]: 8.7
- Glucose concentration in the medium [6]: 0
- Xylose concentration in the medium [6]: 0
- Glucose concentration in the medium [7]: 10
- Xylose concentration in the medium [7]: 10
- Glucose concentration in the medium [8]: 3.6
- Xylose concentration in the medium [8]: 9.2
- Glucose concentration in the medium [9]: 0
- Xylose concentration in the medium [9]: 0

SMILES: NC(=O)/C=C/c1ccc(O)cc1 [Coumaramide, coumaramide]
- fermentation inhibitor in the culture of Pichia stipitis: fermentation inhibitors
- Glucose concentration in the medium [1]: 10
- Xylose concentration in the medium [1]: 10
- Glucose concentration in the medium [2]: 2.3
- Xylose concentration in the medium [2]: 2.3
- Glucose concentration in the medium [3]: 0
- Xylose concentration in the medium [3]: 0
- Glucose concentration in the medium [4]: 10
- Xylose concentration in the medium [4]: 10
- Glucose concentration in the medium [5]: 4.82
- Xylose concentration in the medium [5]: 9.7
- Glucose concentration in the medium [6]: 0
- Xylose concentration in the medium [6]: 0
- Glucose concentration in the medium [7]: 10
- Xylose concentration in the medium [7]: 10
- Glucose concentration in the medium [8]: 5.9
- Xylose concentration in the medium [8]: 9.5
- Glucose concentration in the medium [9]: 0
- Xylose concentration in the medium [9]: 0.4
- growth inhibitory effect compared with coumaric acid: superior to coumaric acid in growth inhibitory
